The NIST ThermoML archive (doi:10.1021/acs.jced.8b00349)
Numbers after ± are expanded uncertainties.

Columns and labels:
[1] = mn = molality of the nth substance listed, in mol/kg; details: 101 kPa, Liquid; for viscosity: Falling or rolling sphere viscometry; for speed of sound: Frequency=3 MHz, Single path-length method; for mass density: Vibrating tube method
[2] = 101 kPa, Liquid, Falling or rolling sphere viscometry

## O [water] + C[n+]1ccn(CCCCn2cc[n+](C)c2)c1.[Br-].[Br-]
[1]; 293.15 K, m2 = 0
  viscosity: 1.005 ± 0.021 mPa·s
[1]; 298.15 K, m2 = 0
  viscosity: 0.894 ± 0.021 mPa·s
[1]; 303.15 K, m2 = 0
  viscosity: 0.801 ± 0.021 mPa·s
[1]; 308.15 K, m2 = 0
  viscosity: 0.723 ± 0.021 mPa·s
[1]; 313.15 K, m2 = 0
  viscosity: 0.656 ± 0.021 mPa·s
  speed of sound: 1529.2 ± 1 m/s

## O [water] + C[n+]1ccn(CCCCCn2cc[n+](C)c2)c1.[Br-].[Br-]
[1]; 293.15 K, m2 = 0
  viscosity: 1.005 ± 0.021 mPa·s
[1]; 298.15 K, m2 = 0
  viscosity: 0.894 ± 0.021 mPa·s
[1]; 303.15 K, m2 = 0
  viscosity: 0.801 ± 0.021 mPa·s
[1]; 308.15 K, m2 = 0
  viscosity: 0.723 ± 0.021 mPa·s
[1]; 313.15 K, m2 = 0
  viscosity: 0.656 ± 0.021 mPa·s
  speed of sound: 1529.2 ± 1 m/s

## O [water] + C[n+]1ccn(CCCn2cc[n+](C)c2)c1.[Br-].[Br-]
[1]; 293.15 K, m2 = 0
  viscosity: 1.005 ± 0.021 mPa·s
[1]; 298.15 K, m2 = 0
  viscosity: 0.894 ± 0.021 mPa·s
[1]; 303.15 K, m2 = 0
  viscosity: 0.801 ± 0.021 mPa·s
[1]; 308.15 K, m2 = 0
  viscosity: 0.723 ± 0.021 mPa·s
[1]; 313.15 K, m2 = 0
  viscosity: 0.656 ± 0.021 mPa·s
  speed of sound: 1529.2 ± 1 m/s

## O [water]
[2]; 293.15 K
  viscosity: 1.005 ± 0.021 mPa·s
[2]; 298.15 K
  viscosity: 0.894 ± 0.021 mPa·s
[2]; 303.15 K
  viscosity: 0.801 ± 0.021 mPa·s
[2]; 308.15 K
  viscosity: 0.723 ± 0.021 mPa·s
[2]; 313.15 K
  viscosity: 0.656 ± 0.021 mPa·s

## NCC(=O)O [2-aminoacetic acid] + O
[1]; 293.15 K, m1 = 0.06
  viscosity: 1.012 ± 0.021 mPa·s
  speed of sound: 1485.8 ± 1.1 m/s
  mass density: 1000.19 ± 0.13 kg/m3
[1]; 298.15 K, m1 = 0.06
  viscosity: 0.908 ± 0.021 mPa·s
  speed of sound: 1499.6 ± 1 m/s
  mass density: 999.024 ± 0.11 kg/m3
[1]; 303.15 K, m1 = 0.06
  viscosity: 0.811 ± 0.021 mPa·s
  speed of sound: 1511.8 ± 1 m/s
  mass density: 997.613 ± 0.11 kg/m3
[1]; 308.15 K, m1 = 0.06
  viscosity: 0.733 ± 0.021 mPa·s
  speed of sound: 1522.4 ± 1 m/s
  mass density: 995.985 ± 0.11 kg/m3
[1]; 313.15 K, m1 = 0.06
  viscosity: 0.666 ± 0.021 mPa·s
  speed of sound: 1531.4 ± 1.1 m/s
  mass density: 994.125 ± 0.13 kg/m3
